Measurements as given in US11197965B2, “Method and system for the administration of a pulmonary surfactant by atomization” (CHIESI FARMACEUTICI S.p.A., priority 2013, dated 2021).

Conditions: in vivo
Method: Old piglets, weighing between 0.8-2.0 kg, were used.
The procedure was carried out as follows: piglets inhaled 10 mg of lidocaine and lidocaine gel was applied in the oropharynx just before the insertion of a Mayo oropharyngeal atomization cannula. The piglets were then laid on one side according to the randomization protocol, and correct positioning of the oropharyngeal cannula just above the larynx entrance was assessed by fiberbronchoscopy. Curosurf® was thoroughly mixed with 300 MBq of Tc-labeled nanocolloid and the animals received a total of 200 mg/kg Curosurf® (80 mg/mL) through an atomization catheter placed inside the oropharyngeal airway. The surfactant atomization procedure was divided in 4 stages (doses): each stage consisted in the delivery of one fourth of the total surfactant dose with the piglet breathing spontaneously on nasal-CPAP (via special “snout-mask”, see details in methods), followed by 5 minutes of PS-ventilation with PEEP (via snout-mask) to avoid atelectasis and promote delivery of the surfactant to the lower airways. When all the surfactant had been delivered, the oropharyngeal cannula was removed and the piglet received PS-ventilation for 15 min. FiO2 was adjusted to maintain saturation above 85%. To secure the airway under transportation to the gamma camera and scintigraphy, the animals were endotracheally intubated and manually ventilated with a Laerdal Silicone Resuscitator.
The piglets were premedicated with i.m. ketamine, midazolam, and atropine, an ear vein was cannulated, and the animals were sedated with a continuous iv. infusion of dexmedetomedine and ketamine. Sedation was supplemented with small intermittent boluses of iv. propofol when needed. An arterial catheter was placed in the femoral artery under local anaesthesia. Invasive blood pressure, pulse oximetry, cerebral oximetry (INVOS), and the diaphragmatic electrical activity (NAVA catheter) were monitored in all animals.
Group-assignment was random, and arranged so that pigs from the same litter were distributed evenly among the groups, when possible. […]

amount of surfactant deposited into the lung compartment: more than 61% | percentage of surfactant deposited, pharynx (mean) (200 mg/kg): 11.1 percentage | percentage of surfactant deposited, trachea (mean) (200 mg/kg): 13.5 percentage
Substance: poractant alfa [Curosurf]
